In paper PMC8781304, “Arene-Ruthenium(II) Complexes with Carbothiamidopyrazoles as a Potential Alternative for Antibiotic Resistance in Human” (Molecules, 2022):
Where two headings read alike, the source gives them in different places.

Columns and labels:
S. aureus ATCC 29213 [1] = experiment: Time-kill test; format: cell-based, Staphylococcus aureus; settings: 1 × MIC
Experimental: (§1) The time-kill experiments were performed as described previously. Briefly, inocula were prepared in TSB medium (TSB; […] BTL Sp. z o.o., Łódź, Poland). All samples were incubated at 35 °C and 80 rpm for varied time intervals (2, 4, 6, 12, 18, 24, 48h). The percentage of dead cells was calculated according to the growth control by determining the number of living cells (CFU/mL) of each tube using the agar plate count method. Samples were immediately serially diluted ten-fold in 0.01 M phosphate buffered saline (PBS, Bimed Lublin S.A., Lublin, Poland) at pH 7.0 and 10 μL aliquots were spot-inoculated in duplicate onto MHA plates. Agar plates were incubated at 37 °C overnight before determining the viable count. Two independent experiments were carried out.

[2] = system: S. epidermidis ATCC 12228; experiment: Cell lysis (bacteriolysis, OD600); format: cell-based, Staphylococcus epidermidis; settings: 1 × MBC
[3] = system: S. epidermidis ATCC 12228; experiment: Time-kill test; format: cell-based, Staphylococcus epidermidis; settings: 1 × MIC
Experimental: as §1

[4] = system: Staphylococcus aureus ATCC 29213; experiment: Fluorescence microscopy, Hoechst 33258 / propidium iodide viability; format: cell-based; settings: S. aureus ATCC 29213; MIC concentration, 24 h
Experimental: (§2) Staphylococcus aureus ATCC 29213 and Staphylococcus epidermidis ATCC 12228 strains were treated with tested compounds 2a–2d and 3a–3d at a concentration 1 × MIC for 24h, while untreated cells were used as a growth control. After incubation, the cells were harvested and a suspension of 1 × 10^5 cells/mL in PBS was prepared. Following this, 1 µl of the fluorescent dyes Hoechst 33258 and propidium iodide (15 µg/mL each) (Sigma, St. Louis, MO, USA) were added. The obtained mixture was incubated in the dark at room temperature for 15–20 min. After incubation, the cell suspensions, placed on glass slides, were analyzed under an Olympus IX 70 fluorescence microscope (Shinjuku, Tokyo, Japan), using a 360–370 nm UV filter. Photos were taken at 10 × 20 magnification.

[5] = system: Staphylococcus epidermidis ATCC 12228; experiment: as above; format: cell-based; settings: S. epidermidis ATCC 12228; MIC concentration, 24 h
Experimental: as §2

S. aureus ATCC 29213 [6] = experiment: Synergy with oxacillin and vancomycin, partial checkerboard broth microdilution; format: cell-based, Staphylococcus aureus; settings: S. aureus ATCC 29213; for FIC (Oxa) / FIC (Van): MIC antibiotic in combination/MIC antibiotic alone; for MIC Oxa in Combination: oxacillin with the complex at ½ MIC (NH4PF6 250 µg/mL); for MIC Van in Combination: vancomycin with the complex at ½ MIC (NH4PF6 250 µg/mL)
[7] = system: Supercoiled plasmid pUC57 DNA; design: method as in PMID 35540189; settings: studied previously; cited from earlier work
[8] = system: S. epidermidis ATCC 12228; experiment: Synergy with oxacillin and vancomycin, partial checkerboard broth microdilution; format: cell-based, Staphylococcus epidermidis; settings: S. epidermidis ATCC 12228; for FIC (Oxa) / FIC (Van): MIC antibiotic in combination/MIC antibiotic alone; for MIC Oxa in Combination: oxacillin with the complex at ½ MIC (NH4PF6 250 µg/mL); for MIC Van in Combination: vancomycin with the complex at ½ MIC (NH4PF6 250 µg/mL)
[9] = system: WM-115 melanoma cell line; settings: cited from earlier work
[10] = read-out: IC50 (cytotoxicity), WM-115 melanoma cell line

| SMILES | Time-kill: bacteriostatic or bactericidal (S. aureus ATCC 29213 [1]) | Cell lysis, change of OD600 [2] | Time-kill: bacteriostatic or bactericidal [3] | Change in bacterial viability (Hoechst 33258 / PI fluorescence) [4] | Change in bacterial viability (Hoechst 33258 / PI fluorescence) [5] | Correlation with Oxa and Van (synergy), in words (S. aureus ATCC 29213 [6]) | FIC (Oxa) (S. aureus ATCC 29213 [6]) | FIC (Van) (S. aureus ATCC 29213 [6]) | MIC Oxa in Combination (S. aureus ATCC 29213 [6]) | MIC Van in Combination (S. aureus ATCC 29213 [6]) | Nicking of DNA Form I into Form II and III [7] | Correlation with Oxa and Van (synergy), in words [8] | FIC (Oxa) [8] | FIC (Van) [8] | MIC Oxa in Combination [8] | MIC Van in Combination [8] | IC50 [9, 10] | IC50 [9] |
| --- | --- | --- | --- | --- | --- | --- | --- | --- | --- | --- | --- | --- | --- | --- | --- | --- | --- | --- |
| CCc1cc(CC)n(C(N)=S)n1.Cc1ccc(C(C)C)cc1.[Cl-].[Cl][Ru+] [Compound 2b] | bacteriostatic | not found to change OD600 values | bacteriostatic | Less changes in cell survival | Less changes in cell survival | synergistic effects | 0.5 | 0.5 | 0.125 µg/mL | 0.25 µg/mL | nick the DNA Form I into Form II and III | synergistic effect in all tested configurations | 0.06 | 0.03 | 0.015 µg/mL | 0.015 µg/mL | – | – |
| Cc1ccc(C(C)C)cc1.NC(=S)n1nc(-c2ccccc2)cc1O.[Cl-].[Cl][Ru+] [Compound 2c] | bacteriostatic | quite moderate decrease in OD600 | bactericidal | greatest changes in bacterial viability | greatest changes in bacterial viability | synergistic effects | 0.5 | 0.5 | 0.125 µg/mL | 0.25 µg/mL | – | – | 0.25 | 1 | 0.06 µg/mL | 0.5 µg/mL | 26.7 µM | – |
| Cc1cc(O)n(C(N)=S)n1.Cc1ccc(C(C)C)cc1.[Cl-].[Cl][Ru+] [Compound 2d] | – | – | – | no significant changes in the viability | no significant changes in the viability | – | 0.5 | 1 | 0.125 µg/mL | 0.50 µg/mL | nick the DNA Form I into Form II and III | – | 0.5 | 1 | 0.125 µg/mL | 0.5 µg/mL | 7.9 µM | – |
| N.N.[Cl][Pt][Cl] [cisplatin, reference compound] | – | – | – | – | – | – | – | – | – | – | – | – | – | – | – | – | – | 18.2 µM |
